# Where two headings read alike, the source gives them in different places.
# Columns and labels:
# S180 sarcoma [1] = conditions: Dosage 1 mg/kg, i.v., S180 sarcoma-bearing mice
# From the text: (§1) (1) Sample: 3,4,5,4′-tetramethoxyl-α,β-diphenylethane-3′-O-sodium sulphate (AS) provided by Zhejiang Cell Biomedical Research Co., Ltd., and prepared by the process in Example One. Dissolved by physiological saline for the concentration needed.
# (2) Cisplatin: Cisplatin for injection (DDP), Qilu Pharmaceutical Co., Ltd. Batch No.: 5120282DC. Dissolved by physiological saline for preparation.
# (3) Control product: Cyclophosphamide for injection (CTX), Jiangsu Hengrui Pharmaceutical Inc. Co. Batch No.: 04123021 Dissolved by physiological saline for preparation.
# (§2) (1) KM mouse bearing S180 sarcoma.
# (2) 70 KM mice, female, weighting 18-22 g, provided by Zhejing College of Traditional Chinese Medicine.
# (1) Drawing ascites under aseptic condition from mouse bearing S180 sarcoma, diluting with physiologic saline 1:3, giving subcutaneous inoculation in the armpit of the right forelimb of the KM mice with 0.2 ml each; dividing the mice into 7 groups randomly the next day, 10 in each group.
# (§3) (2) Administering drug to the mice by weight the third day of inoculation, intravenous administration 0.5 ml/20 g […], by weight, and putting them to death on the 11th day after inoculation, weighing the tumor and calculating the rate of tumor inhibition.
# (§4) (3) dosage (mg/kg/d) and means of administration:
# (§5) AS: 50 mg/kg, tail vein injection
# (§6) AS: 100 mg/kg, tail vein injection
# (§7) AS: 200 mg/kg, tail vein injection
# DDP: 1 mg/kg, tail vein injection
# AS+DDP: 50 mg/kg+1 mg/kg, tail vein injection
# (§8) CTX: 30 mg/kg, tail vein injection
# (§9) Setting up another blank control group, tail vein injection of 0.9% NaCl 0.5 ml.
# (§10) (4) Judging the result with the following formula: […]
# Lewis lung cancer = assay: Joint administration of AS and DDP, murine model of Lewis lung cancer (Example Five); assay type: in vivo, C57BL/6J mice; conditions: Dosage 30 mg/kg, i.p., mice bearing Lewis lung cancer
# From the text: (1) Sample: 3,4,5,4′-tetramethoxyl-α,β-diphenylethane-3′-O-sodium sulphate (AS), raw material medicine, provided by Zhejiang Cell Biomedical Research Co., Ltd., and prepared by the process in Example One. Batch No.: 061025. Dissolved by physiological saline for the concentration needed.
# (2) Cisplatin: Cisplatin for injection (DDP), Qilu Pharmaceutical Co., Ltd. Batch No.: 5120282DC; Dissolved by physiological saline for preparation
# (3) Control product: Cyclophosphamide for injection (CTX), Jiangsu Hengrui Pharmaceutical Inc. Co. Batch No.: 04123021. Dissolved by physiological saline for preparation.
# (1) C57BL/6J mouse bearing Lewis lung cancer
# (2) 70 C57BL/6J mice, female, weighing 17-21 g. Provided by the animal house of Zhejiang Cell Biomedical Research Co., Ltd.
# (1) Taking tumor from C57BL/6J mouse under aseptic condition, grinding and diluting it by physiological saline 1:3 (weight:volume), and giving hypodermic inoculation 0.2 ml per mouse in the armpit of the right forelimb of each mouse. dividing the mice into 7 groups randomly the next day, 10 in each group.
# (2) After inoculation, waiting till the tumor has grown to the accessible size, administering medicine according to body weight, 0.5 ml/20 g intravenous, for 11 days, putting the mice to death on the 19th after inoculation, taking out and weighing the tumor, and calculating the tumor inhibiting rate.
# as §10
# S180 sarcoma [2] = conditions: Dosage 1 mg/kg, i.v., S180 sarcoma-bearing mice; remark: listed apart in the source
# From the text: as §1
# (2) Control product: Cyclophosphamide for injection (CTX), Jiangsu Hengrui Pharmaceutical Inc. Co. Batch No.: 04123021 Dissolved by physiological saline for preparation.
# as §2
# (2) 50 KM mice, female, weighting 18-22 g, provided by Zhejing College of Traditional Chinese Medicine.
# (1) Drawing ascites under aseptic condition from mouse bearing S180 sarcoma, diluting with physiologic saline 1:3, giving subcutaneous inoculation in the armpit of the right forelimb of the KM mice with 0.2 ml each; dividing the mice into 5 groups randomly the next day, 10 in each group.
# as §3, §4, §5, §6, §7, §8, §9, §10
smiles,measurement,setting,value
"O=P1(N(CCCl)CCCl)NCCCO1 (stereo not shown) [CTX, Cyclophosphamide, reference compound]",0 d weight,S180 sarcoma [1],21.18 ± 0.64 g
same,11 d weight without tumor,S180 sarcoma [1],26.28 ± 1.72 g
same,Tumor inhibiting rate %,S180 sarcoma [1],69%
same,Tumor weight,S180 sarcoma [1],0.90 ± 0.26 g
same,Tumor inhibiting rate %,Lewis lung cancer,64.3%
same,Tumor weight,Lewis lung cancer,1.68 ± 0.15 g
same,0 d weight,S180 sarcoma [2],21.18 ± 0.64 g
same,11 d weight without tumor,S180 sarcoma [2],26.28 ± 1.72 g
same,Tumor inhibiting rate %,S180 sarcoma [2],69%
same,Tumor weight,S180 sarcoma [2],0.90 ± 0.26 g
